According to the NIST ThermoML archive (doi:10.1016/j.jct.2019.04.010):

Experiment: xn = mol fraction of the nth substance listed
Conditions: 100 kPa, Liquid; for viscosity: Concentric cylinders viscometry; for mass density: Vibrating tube method

CCCCn1cc[n+](C)c1.O=[N+]([O-])[O-] [1-butyl-3-methylimidazolium nitrate] + CC(C)O
Conditions	mass density [kg/m3]	viscosity [mPa·s]
293.15 K, x1 = 0.0815	853.9	4.18
293.15 K, x1 = 0.1596	906.3	6.88
293.15 K, x1 = 0.2405	951.1	10.99
293.15 K, x1 = 0.3495	1000.3	18
293.15 K, x1 = 0.4405	1034	26
293.15 K, x1 = 0.5607	1070.7	39.8
293.15 K, x1 = 0.6506	1093.8	53.28
293.15 K, x1 = 0.7413	1114.1	69.94
293.15 K, x1 = 0.8515	1135	105.6
293.15 K, x1 = 0.9396	1149.7	157.7
293.15 K, x1 = 1	1158.3	223.54
298.15 K, x1 = 0.0815	849.9	3.66
298.15 K, x1 = 0.1596	902.5	5.95
298.15 K, x1 = 0.2405	947.4	9.26
298.15 K, x1 = 0.3495	996.7	15.42
298.15 K, x1 = 0.4405	1030.5	22
298.15 K, x1 = 0.5607	1067.4	33.04
298.15 K, x1 = 0.6506	1090.6	42.9
298.15 K, x1 = 0.7413	1110.9	55.5
298.15 K, x1 = 0.8515	1131.9	81.6
298.15 K, x1 = 0.9396	1146.6	122.4
298.15 K, x1 = 1	1155.2	168.97
303.15 K, x1 = 0.0815	846	3.29
303.15 K, x1 = 0.1596	898.7	5.22
303.15 K, x1 = 0.2405	943.8	8
303.15 K, x1 = 0.3495	993.2	12.83
303.15 K, x1 = 0.4405	1027.2	17.76
303.15 K, x1 = 0.5607	1064.2	26.4
303.15 K, x1 = 0.6506	1087.4	34.49
303.15 K, x1 = 0.7413	1107.9	45.29
303.15 K, x1 = 0.8515	1129	63.3
303.15 K, x1 = 0.9396	1143.6	90.3
303.15 K, x1 = 1	1152.3	125.36
308.15 K, x1 = 0.0815	841.9	2.93
308.15 K, x1 = 0.1596	894.8	4.55
308.15 K, x1 = 0.2405	940.1	6.55
308.15 K, x1 = 0.3495	989.6	10.13
308.15 K, x1 = 0.4405	1023.7	14.06
308.15 K, x1 = 0.5607	1060.8	20.79
308.15 K, x1 = 0.6506	1084.2	27.05
308.15 K, x1 = 0.7413	1104.7	36.2
308.15 K, x1 = 0.8515	1126	50.5
308.15 K, x1 = 0.9396	1140.6	72.4
308.15 K, x1 = 1	1149.3	96.74
313.15 K, x1 = 0.0815	837.9	2.53
313.15 K, x1 = 0.1596	891.1	3.95
313.15 K, x1 = 0.2405	936.5	5.7
313.15 K, x1 = 0.3495	986.4	8.96
313.15 K, x1 = 0.4405	1020.6	12.29
313.15 K, x1 = 0.5607	1057.8	17.93
313.15 K, x1 = 0.6506	1081.3	23.42
313.15 K, x1 = 0.7413	1101.7	30.6
313.15 K, x1 = 0.8515	1123.2	42.3
313.15 K, x1 = 0.9396	1137.8	58.7
313.15 K, x1 = 1	1146.5	75.12
318.15 K, x1 = 0.0815	833.7	2.25
318.15 K, x1 = 0.1596	887.1	3.53
318.15 K, x1 = 0.2405	932.8	5.15
318.15 K, x1 = 0.3495	982.9	7.91
318.15 K, x1 = 0.4405	1017.3	10.89
318.15 K, x1 = 0.5607	1054.7	15.75
318.15 K, x1 = 0.6506	1078.3	20.46
318.15 K, x1 = 0.7413	1098.9	26.05
318.15 K, x1 = 0.8515	1120.5	35.1
318.15 K, x1 = 0.9396	1135	45.9
318.15 K, x1 = 1	1143.8	56.28
323.15 K, x1 = 0.0815	829.5	2
323.15 K, x1 = 0.1596	883.3	3.09
323.15 K, x1 = 0.2405	929.2	4.61
323.15 K, x1 = 0.3495	979.5	7.17
323.15 K, x1 = 0.4405	1014.1	9.8
323.15 K, x1 = 0.5607	1051.7	14.17
323.15 K, x1 = 0.6506	1075.4	18.14
323.15 K, x1 = 0.7413	1096.1	23.09
323.15 K, x1 = 0.8515	1117.8	30.31
323.15 K, x1 = 0.9396	1132.5	37.81
323.15 K, x1 = 1	1141.2	45.17
